These results are taken from US20070286886A1, “Materials And Methods For Inducing Apoptosis In Adipocytes” (University of Tennessee Research Foundation, priority 2004, published 2007).

Experiment [1] concerns 3T3-L1 and UCP2-transfected 3T3-L1 adipocytes. As to the kind of experiment: Cytosolic/intracellular calcium (fura-2 dual-wavelength fluorescence imaging) in adipocytes. The class given is cell-based.
The subject of another experiment is UCP2. As to the kind of experiment: UCP2 expression in 3T3-L1 cells (western blot, UCP2/actin). The class given is cell-based, mouse. Conditions: 3T3-L1 cells, BK8644. The protocol:
Duplex siRNA corresponding to UCP2 gene was designed and chemically synthesized by Invitrogen. The following gene-specific sequences were used successfully: Si-UCP2 sense 5′-GCCUCUACGACUCUGUCAA-3′ and antisense […]. Transfection of siRNA was performed with Oligofectamine™ reagent (Invitrogen Life Technologies, CA) in 6-well plates. Briefly, Oligofectamine diluted in DMEM was applied to the duplex siRNA mixture, and the formulation was continued for 20 min to allow the Oligofectamine-oligonucleotide complex to form. Per well, 800 μl of plating medium and 10 ul of 20 μM duplex siRNA duplex siRNA formulated with 4 μl of Oligofectamine were applied in a final volume of 1 ml. Cells were then incubated at […] in a CO2 incubator for 4 hrs. […]
Adipocytes were harvested and sonicated in a homogenization buffer containing 50 mM Tris-HCl (PH 7.4), 250 mM sucrose, 1 mM EDTA, 1 mM dithiothreitol, 1% (v/v) Triton X, 10% protease cocktail (Sigma). […] Homogenate intrafranatant protein from equal numbers of cells (determined via protein quantitation using Bradford method as described previously) was boiled in Laemmli sample buffer and subject to 10% SDS-polyacrylamide gel electrophoresis (PAGE). […] Visualization was detected with chemiluminescence reagent, using the Western Blotting Luminal Reagent (Santa Cruz Biotechnology, CA).
(In general: In western blotting, separated proteins are transferred to a membrane and probed.)

Another experiment concerns 3T3-L1 and L1-UCP2 cells. As to the kind of experiment: Adipocyte apoptosis in 3T3-L1 and L1-UCP2 cells. The class given is cell-based. Here is the method: 3T3-L1 preadipocytes were incubated at a density of 8000 cells/cm2 (10 cm2 dish) and grown in Dulbecco's modified Eagle's medium (DMEM) containing 10% FBS and antibiotics (adipocyte medium) at 37° C. in 5% CO2 in air. Confluent preadipocytes were induced to differentiate with a standard differentiation medium consisting of DMEM-F10 (1:1, vol/vol) medium supplemented with 1% FBS, 1 μM dexamethasone, IBMX (0.5 mM), and antibiotics (1% penicillin-streptomycin). Preadipocytes were maintained in this differentiation medium for 3 days and subsequently cultured in adipocyte medium. Cultures were re-fed every 2-3 days to allow 90% cells to reach full differentiation before they were chemically treated. Chemicals were freshly diluted in adipocyte medium before treatment. […] Cell viability was measured via trypan blue exclusion. […]
(§1) Adipocyte caspase-1, caspase-3, Bcl-2, and Bax mRNA were quantitatively measured using a Smart Cycler Real Time PCR System (Cepheid, Sunnyvale, Calif.) with a TaqMan 1000 Core Reagent Kit (Applied Biosystems, Branchburg, N.J.). […] Reactions of quantitative RT-PCR for standards and unknown samples were Cepheid, Sunnyvale, Calif.) and TaqMan Real Time PCR Core Kit. The mRNA quantitation for each sample was further normalized using the corresponding 18 s quantitation, with a forward primer, 5′-[…]-3′, and a reverse primer, 5′-[…]-3′.

The subject of another experiment is caspase-1. As to the kind of experiment: Caspase-1 mRNA expression by real-time PCR in 3T3-L1 and UCP2-transfected 3T3-L1 adipocytes. The class given is cell-based. As to conditions: 24 h, control and UCP2-transfected 3T3-L1 cells. The protocol: (§2) 3T3-L1 preadipocytes were incubated at a density of 8000 cells/cm2 (10 cm2 dish) and grown in Dulbecco's modified Eagle's medium (DMEM) containing 10% FBS and antibiotics (adipocyte medium) at 37° C. in 5% CO2 in air. Confluent preadipocytes were induced to differentiate with a standard differentiation medium consisting of DMEM-F10 (1:1, vol/vol) medium supplemented with 1% FBS, 1 μM dexamethasone, IBMX (0.5 mM), and antibiotics (1% penicillin-streptomycin). Preadipocytes were maintained in this differentiation medium for 3 days and subsequently cultured in adipocyte medium. Cultures were re-fed every 2-3 days to allow 90% cells to reach full differentiation before they were chemically treated. Chemicals were freshly diluted in adipocyte medium before treatment. Cells were washed with fresh adipocyte medium, re-fed with medium containing the different treatments, and incubated at 37° C. in 5% CO2 in air before analysis. Cell viability was measured via trypan blue exclusion.
(§3) UCP2 full-length cDNAs were amplified by […] using mRNAs isolated from mouse white adipose tissues. The PCR primers for this amplification are shown as follows: UCP2 forward, 5′-[…]-3′, reverse, 5′-[…]-3′. The PCR products were then subcloned into pcDNA4/His expression vectors. The linearized constructs were transfected into 3T3-L1 preadipocytes using lipofectamine plus standard protocol (Invitrogen, Carlsbad, Calif.). After 48 h of transfection, cells were split and cultured in selective medium containing 400 ug/ml zeocin for the selection of resistant colonies. […]
as §1

In a further experiment the test system is Bcl-2/Bax. As to the kind of experiment: Bcl-2/Bax expression ratio by real-time PCR in 3T3-L1 and UCP2-transfected 3T3-L1 adipocytes. As to conditions: 24 h, P<0.01. It is filed as cell-based. The protocol:
as §2, §3, §1
In general terms: Quantitative PCR measures a nucleic acid by following its amplification.

Experiment [2] concerns 3T3-L1 and UCP2-transfected 3T3-L1 cells. As to the kind of experiment: ATP production (microplate luminometer) in adipocytes. The class given is cell-based. As to conditions: 4 h. Here is the method:
Adipocytes were incubated with adipocyte medium for 4 h with or without 1α,25-(OH)2-D3. ATP levels were measured using ENLITEN Total ATP Rapid Biocontamination Detection Kit (Promega, Madison, […].) according to the manufacturer's instructions. Cellular ATP was extracted as described previously and measured using a microplate luminometer (Labsystem, Helsinki, Finland). The integration time of the luminometer was set at 1 s with normal gain. Measurement of cytosolic Ca^2+ ([Ca^2+]c) and mitochondrial calcium([Ca^2+]m)

“Also recorded” adds a separate entry of the source.

Consider `COC(=O)C1=C(C)NC(C)=C([N+](=O)[O-])C1c1ccccc1C(F)(F)F` (stereo not shown) [Bay K 8644], for which the “adipocyte Ca2+ influx / [Ca2+]i” value in experiment [1] (1 nM-100 nM, 3T3-L1 cells) was “dose-dependent”. Moreover, the “increases in [Ca2+]i” value in experiment [1] (3T3-L1 cells) is 3-4 fold. In addition, in the experiment with UCP2, the “effect on UCP2 expression” value was “no effect”.
On to `C=C1/C(=C\C=C2/CCC[C@]3(C)[C@@H]([C@H](C)CCCC(C)(C)O)CC[C@@H]23)C[C@@H](O)C[C@@H]1O` [1α,25-(OH)2-D3, 1α,25-dihydroxyvitamin D3], for which the apoptosis entry in the experiment with 3T3-L1 and L1-UCP2 cells (high dose (100 nM), 3T3-L1 and L1-UCP2 cells, P<0.05) is reported as “stimulated”. In addition, in the experiment with 3T3-L1 and L1-UCP2 cells (physiological doses (0.1-10 nM), L1-UCP2 cells, P<0.01), the UCP2 overexpression-induced apoptosis result is on record as “protected”. Moreover, the caspase-1 expression result was “stimulated” in the experiment on caspase-1 (high dose 100 nM, P<0.01) and “inhibited” with caspase-1 (physiological low doses 0.1 nM, 1 nM, 5 nM, 10 nM, P<0.05). The cytosolic calcium levels entry in experiment [1] (1 nM, 5 nM, 10 nM, 100 nM, control and UCP2-transfected cells) is on record as “dose-dependent increase; also recorded: dose-dependently”. Also, the “increase in calcium influx, high dose relative to the lower doses” value in experiment [1] (high dose (100 nM) vs lower doses) is 10 fold. Moreover, the Bcl-2/Bax expression ratio entry was “significant decrease” in the experiment with Bcl-2/Bax (high dose 100 nM, control and UCP2-transfected 3T3-L1 cells); “dose-dependent increase” in the experiment on Bcl-2/Bax (lower levels (0.1-10 nM)). Moreover, the ATP production entry is reported as “inhibited” in experiment [2] (high dose (100 nM), P<0.05) and “markedly increased” in experiment [2] (low dose, P<0.01).
